Data from US9714245B2, “Carboline compounds usable in the treatment of neurodegenerative diseases” (ALZPROTECT, priority 2013, dated 2017).

What was measured:
[1] = tested on: secreted Aβ1-40; assay: Aβ1-40 secretion by APP-transfected neuroblastoma cells (ELISA); type: cell-based; settings: Homo sapiens, Neuroblastoma cell; SKNSH-SYSY APPWT cells; concentration decreasing secreted Aβ1-40 to 50% of basal amount
Description: (§1) Cell Cultures and Transfections to Test Activity on Aβ1-40 and Aβ1-42 Secretion
(§2) Human neuroblastoma cell line SKNSH-SYSY (ATCC® Catalog No. CRL-2266™), HEK (ATCC® CRL-1573™) and COS-1 (ATCC® CRL-1650™) cells were maintained in Dulbecco's modified Eagle medium (DMEM, GIBCO BRL) supplemented with 10% fetal calf serum, 2 mM L-glutamine, 1 mM non-essential amino acids, 50 units/ml penicillin/streptomycin (Invitrogen, France) in a 5% CO2 humidified incubator at 37° C. APP695 cDNA was subcloned into eukaryotic expression vector pcDNA3 (Invitrogen), allowing for a G418 (Invitrogen) selection of clones. This APP cDNA coding for the 695 amino acid long isoform was transfected into SKNSH-SYSY cells using the ethyleneimine polymer ExGen 500 (Euromedex) according to the manufacturer's instructions. The cells expressing APP (SKNSH-SYSY APP^WT) were selected by the addition of 200 μg/ml G418 in the cell medium. To quantify AR which released in the cell culture medium, the collected medium was spun at 200×g to eliminate the cell debris. The concentrations of secreted Aâ1-40 and Aβ1-42 were determined using the Human Aβ (1-40) Assay Kit (IBL) or the INNOTEST™ beta-Amyloid (1-42) ELISA Kit (Innogenetics), according to manufacturer's instructions. The results were expressed as IC50, i.e. the concentration able to decrease to 50% the basal amount of secreted Aβ peptide 1-40 and 1-42.

[2] = tested on: secreted Aβ1-42; assay: Aβ1-42 secretion by APP-transfected neuroblastoma cells (ELISA); type: cell-based; settings: Homo sapiens, Neuroblastoma cell; SKNSH-SYSY APPWT cells; concentration decreasing secreted Aβ1-42 to 50% of basal amount
Description: as §1, §2

[3] = tested on: CTFα; assay: Quantification of APP-CTFα by Western blot in SY5Y-APPWT cells; type: cell-based, Human; settings: compared to a control with a value of 100
Description: (§3) Quantifications of APP-CTFs and AICD
(§4) After treatment, SY5Y-APP^WT cells were scrapped and lysed in 1× Lysis Buffer (250 mM NaCl, 50 mM Tris, pH 8.8, 5 mM EDTA, 2.5% Triton X-100, 1% Deoxycholate, 0.1% SDS). For the Western blotting, an equal amount of total proteins (20 μg/lane) was loaded on a 16.5% Tris-Tricine or 8-16% Tris-Glycine polyacrylamide gel.
(§5) SDS-polyacrylamide gel electrophoresis (PAGE) was performed using the Criterion™ Tris-Tricine-precast or Bis-Tris-precast criterion gels (Bio-Rad Bioresearch division). Proteins were transferred to a […] nitrocellulose membrane (Hybond, Amersham Biosciences) at 2.5 mA/cm2 per gel using the Criterion™ Blotter system (Amersham Biosciences), according to the manufacturer's instructions. Proteins were reversibly stained with Ponceau Red in order to check the quality of the transfer of protein. The membranes were blocked in 25 mM Tris-HCl pH 8.0, 150 mM NaCl, 0.1% Tween-20 (v/v) and 5% (w/v) of skimmed milk for 30 min. Membranes were incubated overnight at 4° C. with appropriate dilution of the primary antibodies, and were incubated for 1 h at room temperature with secondary antibody. […] Quantifications were calculated with Image J software (NIH) and the data were collected using Excel Software (Microsoft). The loading variations between Western blot lanes were normalized according to the tubulin signal. Quantification of CTFα and AICD were compared to control conditions (considered as 100 in arbitrary units) and are presented for two concentrations of the drug: 1 and 10 μM.

[4] = tested on: AICD; assay: Quantification of AICD by Western blot in SY5Y-APPWT cells; type: cell-based, Human; settings: compared to a control with a value of 100
Description: as §3, §4, §5

[5] = Cytotoxicity evaluation (MTS assay); type: cell-based, Human; settings: human, SY5Y-APPWT neuroblastoma cells (expressing APP); SY5Y-APPWT cells, 24 h treatment, MTS
Description: Human neuroblastoma cell line SY5Y-APP^WT was used to assess the cytotoxic effects of each compound. SY5Y-APP^WT cells were seeded at 20000 cells/well onto 96-well plates and were cultured in Dulbecco's modified Eagle medium (DMEM, Invitrogen) supplemented with 10% fetal calf serum (PAA), 2 mM L-glutamine (Invitrogen), 1 mM non-essential amino acids (Invitrogen), 50 units/ml penicillin/streptomycin (Invitrogen), and 200 μg G418=geneticin (Invitrogen) (selection for cells expressing APP) in a 5% CO2 humidified incubator at 37° C. After 24 h, the cells were washed and incubated with the compound at 0.1; 0.3; 1; 3; 10; 30 and 100 μM or with DMSO as control diluted in the same culture medium at 37° C. in 5% CO2. After 24 h of treatment, cytotoxicity was determined by using colorimetric MTS assay (CellTiter 96® Aqueous One Solution Cell Proliferation Assay-MTS Promega) according to the protocol of the manufacturer. Absorbance was read at 490 nm and results were expressed as % from control condition considered as 100%.

[6] = biological target: T1, HIS-tagged valosin-containing protein/p97 (VCP/p97) (Homo sapiens, UniProt P55072); assay: VCP interaction assay (competition with biotinylated probe 4.7); type: binding; settings: compound 60 μM against biotinylated probe 4.7 20 μM
T1 construct: purchased TebuBio
T1 sequence (P55072 whole entry): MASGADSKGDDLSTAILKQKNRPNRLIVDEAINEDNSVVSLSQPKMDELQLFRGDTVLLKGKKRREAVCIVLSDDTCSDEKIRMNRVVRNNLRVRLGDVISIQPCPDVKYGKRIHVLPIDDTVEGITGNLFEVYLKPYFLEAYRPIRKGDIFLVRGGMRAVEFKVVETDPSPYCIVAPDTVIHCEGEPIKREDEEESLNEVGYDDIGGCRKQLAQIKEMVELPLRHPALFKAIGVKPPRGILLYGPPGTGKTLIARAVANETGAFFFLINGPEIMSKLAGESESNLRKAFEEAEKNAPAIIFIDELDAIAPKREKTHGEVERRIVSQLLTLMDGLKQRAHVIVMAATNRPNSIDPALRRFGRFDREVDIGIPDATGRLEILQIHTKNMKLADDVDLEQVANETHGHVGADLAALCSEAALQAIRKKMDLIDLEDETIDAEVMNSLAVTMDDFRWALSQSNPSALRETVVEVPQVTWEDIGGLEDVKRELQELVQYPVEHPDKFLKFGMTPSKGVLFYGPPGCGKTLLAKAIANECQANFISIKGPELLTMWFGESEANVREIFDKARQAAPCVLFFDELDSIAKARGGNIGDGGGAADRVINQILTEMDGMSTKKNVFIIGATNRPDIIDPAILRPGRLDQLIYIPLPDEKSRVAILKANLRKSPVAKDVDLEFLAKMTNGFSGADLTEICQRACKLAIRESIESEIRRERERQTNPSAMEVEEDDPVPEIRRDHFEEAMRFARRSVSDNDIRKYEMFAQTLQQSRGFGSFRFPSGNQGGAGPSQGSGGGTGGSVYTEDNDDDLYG
Description: Physical interaction between HIS-tagged valosin-containing protein/p97 (VCP/p97) (TebuBio) and biotinylated probe 4.7 was investigated by Enzyme-Linked Assay (ELA) based on HIS-Select® High Sensitivity Nickel coated plates, used following manufacturer's recommendations (Sigma Aldrich). Other chemical compounds were tested in competition with the biotinylated probe 4.7 in this system. Briefly, nickel beads were incubated overnight at 4° C. with 2% casein blocking solution. After a three-time rinse with wash buffer (0.05% Tween20 in phosphate buffer saline), HIS-tagged VCP/p97 protein (5 μg/ml in PBS) was incubated with nickel beads for 90 min at 25° C. Then, the plate was washed three times. Chemical compounds (60 μM) were incubated 10 min at 25° C. before addition of biotinylated probe 4.7 (20 μM) 30 min at 25° C. After five washes, streptavidin-peroxidase (2 μg/ml) was added during 1 h at 25° C., followed by the peroxidase substrate addition 30 min at RT. Reaction was stopped with 0.5M H2SO4 solution and the optical density was read at 450 nm using a microplate reader (VICTOR X4 Wallac, 2030-0040, PerkinElmer). Competition efficiency was quantified by the loss of signal compared to the control condition.

Row | SMILES | IC50 [1] [µM] | IC50 [2] [µM] | CTFα (10 μM) [3] [arbitrary units] | AICD (10 μM) [4] [arbitrary units] | CC50 at 24 h [5] [µM] | VCP (competition efficiency, loss of signal compared to the control) [6] [%]
1 | CC(C)CN(CCN1CCN(CCCN2CCc3c([nH]c4ccccc34)C2)CC1)CC(C)C [Compound 3.2h, N,N-diisobutyl-2-{4-[3-(1,3,4,9-tetrahydro-1H-beta-carbolin-2-yl)propyl]piperazin-1-yl}ethylamine] | 3 | 3 | – | – | – | –
2 | CC(C)CN(CCCN1CCN(CCCN2CCc3c([nH]c4ccc(Cl)cc34)C2)CC1)CC(C)C [Compound 3.2b, N,N-diisobutyl-3-{4-[3-(6-chloro-1,3,4,9-tetrahydro-1H-beta-carbolin-2-yl)propyl]piperazin-1-yl}propylamine] | – | > 10 | 716 | 7417 | > 100 | –
3 | Fc1ccc2[nH]c3c(c2c1)CN(CCCN1CCN(CCCN(Cc2ccccc2)Cc2ccccc2)CC1)CC3 [Compound 3.1h, N,N-dibenzyl-3-[4-(3-(8-fluoro-1,3,4,5-tetrahydro-1H-pyrido[4,3-b]indol-2-yl)propyl)piperazin-1-yl]propylamine] | 2.5 | 2.5 | – | – | 4.8 | –
4 | CN(C)CCCN1CCN(CCCN2CCc3c([nH]c4ccccc34)C2)CC1 [Compound 3.2d, N,N-dimethyl-3-(4-(3-(1,3,4,9-tetrahydro-1H-beta-carbolin-2-yl)propyl)piperazin-1-yl)propylamine] | > 10 | > 10 | 1042 | 41661 | > 100 | 70
5 | CC(C)CN(CCCN1CCN(CCCN2CCc3c([nH]c4ccccc34)C2c2ccccc2)CC1)CC(C)C (stereo not drawn) [Compound 3.2a, N,N-diisobutyl-3-{4-[3-(1-phenyl-1,3,4,9-tetrahydro-1H-beta-carbolin-2-yl)propyl]piperazin-1-yl}propylamine] | 2 | 5 | – | – | – | –
6 | c1ccc2c3c([nH]c2c1)CN(CCCN1CCN(CCN2CCCCC2)CC1)CC3 [Compound 3.2j, 1-[2-(piperidin-1-yl)ethyl]-4-(3-{1H,2H,3H,4H,9H-pyrido[3,4-b]indol-2-yl}propyl)piperazine] | 5 | 3 | – | – | > 100 | –
7 | c1ccc2c3c([nH]c2c1)CN(CCCN1CCN(CCCN2CCCCC2)CC1)CC3 [Compound 3.2i, 1-[3-(piperidin-1-yl)propyl]-4-(3-{1H,2H,3H,4H,9H-pyrido[3,4-b]indol-2-yl}propyl)piperazine] | 5 | 5 | – | – | > 100 | –
8 | COc1ccc2[nH]c3c(c2c1)CN(CCCN1CCN(CCN(CC(C)C)CC(C)C)CC1)CC3 [Compound 3.1g, N,N-diisobutyl-2-(4-(3-(8-methoxy-1,3,4,5-tetrahydro-1H-pyrido[4,3-b]indol-2-yl)propyl)piperazin-1-yl)ethylamine] | 2.5 | 3.5 | – | – | – | –
9 | CN(C)CCCN1CCN(CCCN2CCc3c([nH]c4ccccc34)C2c2ccccc2)CC1 (stereo not drawn) [Compound 3.2e, N,N-dimethyl-3-(4-(3-(1-phenyl-1,3,4,9-tetrahydro-1H-beta-carbolin-2-yl)propyl)piperazin-1-yl)propylamine] | 2.5 | 2 | 234 | 4765 | 12 | –
10 | COc1ccc2[nH]c3c(c2c1)CN(CCCN1CCN(CCCN(CC(C)C)CC(C)C)CC1)CC3 [Compound 3.1b, N,N-diisobutyl-3-(4-(3-(8-methoxy-1,3,4,5-tetrahydro-1H-pyrido[4,3-b]indol-2-yl)propyl)piperazin-1-yl)propylamine] | – | – | – | 16400 | > 10 | –
11 | CC(C)CN(CCCN1CCN(CCCN2CCc3[nH]c4ccccc4c3C2)CC1)CC(C)C [Compound 3.1a, N,N-diisobutyl-3-[4-(3-(1,3,4,5-tetrahydro-1H-pyrido[4,3-b]indol-2-yl)propyl)piperazin-1-yl]propylamine] | 1.2 | 2.1 | – | 1081 | – | –
12 | Cc1ccc2[nH]c3c(c2c1)CN(CCCN1CCN(CCCN(CC(C)C)CC(C)C)CC1)CC3 [Compound 3.1c, N,N-diisobutyl-3-[4-(3-(8-methyl-1,3,4,5-tetrahydro-1H-pyrido[4,3-b]indol-2-yl)propyl)piperazin-1-yl]propylamine] | 1 | 10 | 355 | – | 10 | –
13 | COc1ccc2[nH]c3c(c2c1)CN(CCCN1CCN(CCCN2CCCCC2)CC1)CC3 [Compound 3.1i, 3-(4-(3-(8-methoxy-1,3,4,5-tetrahydro-1H-pyrido[4,3-b]indol-2-yl)propyl)piperazin-1-yl)propylpiperidine] | 10 | > 10 | – | – | > 100 | –
